Laboratory results reported in US20090068290A1, “BIFEPRUNOX DOSES FOR TREATING SCHIZOPHRENIA” (priority 2006, published 2009).

Legend:
[1] = Body weight, Clinical Study Three
From the text: To assess the safety and tolerability of bifeprunox using physical examination, weight, waist circumference, vital signs (pulse rate and systolic/diastolic blood pressure [BP], and oral temperature), 12-lead electrocardiogram (ECG), clinical laboratory assessments (hematology, biochemistry including fasting insulin level, fasting glucose, fasting lipid profile, urinalysis, special laboratory assessments for prolactin, IGF-1, IGFBP-3, and thyroid function), need for anticholinergic treatment during double-blind treatment period, concomitant medication use, adverse event (AE) monitoring, and assessments of abnormal movement including the Simpson-Angus Scale (SAS), Barnes Akathisia Scale (BAS), and Abnormal Involuntary Movement Scale (AIMS).

[2] = test system: adult subjects with schizophrenia; test: PANSS responder rates, Clinical Study Three; format: in vivo, human
Procedure: There were four treatment arms in this study, approximately 144 subjects per arm. […] After completing the Single-Blind Placebo Lead-in Period of at least three days, bifeprunox-treated subjects were titrated from 0.25 mg up to 20 mg/day or 30 mg/day according to a standardized titration scheme over a seven- or eight-day period, respectively. When the assigned dose was reached, subjects were maintained at that dose for the remainder of the six week treatment period. […] Subjects were hospitalized (if not already inpatients) after eligibility for study entry was verified, starting from the Screening Visit until at least 10 days after Baseline. Subjects could be hospitalized longer than 10 days if considered medically necessary by the Investigator. Rating scale assessments for efficacy and abnormal movement disorders were done weekly except for Week 5. Safety assessments were performed at Screening, during treatment and at the end of the study. Subject satisfaction with study medication was assessed at Week 6. Samples of whole blood were obtained at Weeks 2, 4, and 6 for determination of bifeprunox in plasma.
CLINICAL STUDY THREE. A PANSS responder was defined as a subject whose PANSS total score decreased by 20% or more from Baseline to Endpoint. As exploratory analyses, responder rates were also analyzed using a 30%, 35%, 40%, and 50% definition of responder.

[3] = test system: adult subjects with schizophrenia; test: Adverse events (TEAE, SAE, special interest, EPS-related TEAE), Clinical Study Two; format: in vivo, human; details: Risperidone 6 mg
Procedure: (§1) Subjects who completed this study had the option to continue in the long-term. […] Risperidone-treated subjects were titrated from 2 mg to 6 mg daily over a three-day period and were subsequently maintained at 6 mg/day for the remainder of the treatment period. […] Blood samples were also obtained at Screening/Baseline, Week 3, and Week 6 for clinical laboratory assessments.

[4] = test system: adult subjects with schizophrenia; test: CGI Severity of Illness score, Clinical Study Two; format: in vivo, human; details: LOCF; for Change from Baseline in CGI Severity of Illness Score, Mean (SD) / Change from Baseline in CGI Severity of Illness Score, Median: Risperidone 6 mg, ITT population
Procedure: Rating scale assessments were performed weekly, except for week 5, to measure the change from baseline to endpoint of the PANSS total score. Other assessments included: PANSS positive symptom subscale score, PANSS negative symptom subscale score, PANSS general pschopathology subscale score, BPRS total score, BPRS psychosis score, the CGI-S score, the CGI-I score, responder rates based on the PANSS total score, and the Calgary Depression Scale for Schizophrenia (CDSS). […]
as §1

[5] = test system: adult subjects with schizophrenia; test: PANSS positive subscale score, Clinical Study One; format: in vivo, human; details: Risperidone 6 mg, ITT
Procedure: There were five treatment groups in this study. […] Study medication was administered once daily. After Baseline measurements were performed, the titration phase was begun. Bifeprunox treated subjects were titrated up to 5 mg, 10 mg or 20 mg according to a standardized titration schedule (Day 1: 0.125 mg, Day 2: 0.25 mg, Day 3: 0.5 mg, Day 4: 1.0 mg, Day 5: 2.0 mg, Day 6: 5.0 mg, Day 7: 10.0 mg, Day 8: 20 mg). When the assigned dose was reached, subjects were maintained at that dose for the remainder of the six-week treatment period.
The change in the Positive and Negative Symptom Scale (PANSS) total score, from baseline to endpoint, was the primary outcome measure. Secondary efficacy measures included: PANSS positive, PANSS negative, PANSS general psychopathology (GPP) score, PANSS-derived Brief Psychiatric Rating Scale (BPRS) score, Clinical Global Impressions-Severity of Illness (CGI-S), CGI-Improvement (CGI-I) scores, and responder rates. Safety and tolerability evaluations included extrapyramidal symptoms (EPS), weight gain, lipid profile, and serum prolactin.

SMILES: Cc1cc2c(s1)Nc1ccccc1N=C2N1CCN(C)CC1 [Olanzapine, olanzapine, reference compound]
- Weight, Baseline, Max ([1]; Olanzapine 15 mg): 300 lbs
- Weight, Baseline, Mean (SD) ([1]; Olanzapine 15 mg): 175.2 (52.7) lbs
- Weight, Baseline, Min ([1]; Olanzapine 15 mg): 68 lbs
- Weight, Change from Baseline at Endpoint, Max ([1]; Olanzapine 15 mg): 31 lbs
- Weight, Change from Baseline at Endpoint, Mean (SD) ([1]; Olanzapine 15 mg): 5.2 (6.9) lbs
- Weight, Change from Baseline at Endpoint, Median ([1]; Olanzapine 15 mg): 4 lbs
- Weight, Change from Baseline at Endpoint, Min ([1]; Olanzapine 15 mg): −7 lbs
- Weight, Change from Baseline at Week 6, Max ([1]; Olanzapine 15 mg): 31 lbs
- Weight, Change from Baseline at Week 6, Mean (SD) ([1]; Olanzapine 15 mg): 5.9 (7.3) lbs
- Weight, Change from Baseline at Week 6, Median ([1]; Olanzapine 15 mg): 5 lbs
- Weight, Change from Baseline at Week 6, Min ([1]; Olanzapine 15 mg): −7 lbs
- mean body weight (in words) ([1]; olanzapine 15 mg, 6 weeks): an increase in weight
- PANSS 20% definition response rate No, % ([2]; 15 mg, Week 6/Endpoint, LOCF): 46%
- PANSS 20% definition response rate Yes, % ([2]; 15 mg, Week 6/Endpoint, LOCF): 54%
- 20% PANSS responder rate ([2]; olanzapine 15 mg, Endpoint LOCF): 54%

SMILES: Cc1nc2n(c(=O)c1CCN1CCC(c3noc4cc(F)ccc34)CC1)CCCC2 [Risperidone, risperidone, reference compound]
- AKATHISIA, % [3]: (10%)
- BRADYKINESIA, % [3]: (1%)
- DISTURBANCE IN ATTENTION, % [3]: (1%)
- DIZZINESS, % [3]: (6%)
- DYSARTHRIA, % [3]: (2%)
- DYSKINESIA, % [3]: (<1%)
- Dystonia, % [3]: (7%)
- EXTRAPYRAMIDAL DISORDER, % [3]: (14%)
- HEADACHE NOS, % [3]: (15%)
- Hypoaesthesia, % [3]: 1 (<1%)
- Memory Impairment, % [3]: 1 (<1%)
- NERVOUS SYSTEM DISORDERS, % [3]: (53%)
- Parkinsonism, % [3]: 1%
- SEDATION, % [3]: 7%
- SINUS HEADACHE, % [3]: 1 (<1%)
- SOMNOLENCE, % [3]: 6%
- TARDIVE DYSKINESIA, % [3]: 2%
- TREMOR, % [3]: 5%
- incidence of severe TEAE of schizophrenia [3]: 2%
- subjects with at least one TEAE [3]: 78%
- Change from Baseline in CGI Severity of Illness Score, Mean (SD) ([4]; Week 1): −0.39 (0.63)
- Change from Baseline in CGI Severity of Illness Score, Median ([4]; Week 1): 0.0
- Change from Baseline in CGI Severity of Illness Score, Mean (SD) ([4]; Week 2): −0.73 (0.95)
- Change from Baseline in CGI Severity of Illness Score, Median ([4]; Week 2): −1.0
- Change from Baseline in CGI Severity of Illness Score, Mean (SD) ([4]; Week 3): −0.94 (1.00)
- Change from Baseline in CGI Severity of Illness Score, Median ([4]; Week 3): −1.0
- Change from Baseline in CGI Severity of Illness Score, Mean (SD) ([4]; Week 4): −1.02 (1.09)
- Change from Baseline in CGI Severity of Illness Score, Median ([4]; Week 4): −1.0
- Change from Baseline in CGI Severity of Illness Score, Mean (SD) ([4]; Week 6/Endpoint): −1.06 (1.20)
- Change from Baseline in CGI Severity of Illness Score, Median ([4]; Week 6/Endpoint): −1.0
- mean change (SD) from Baseline to Endpoint in CGI severity of illness score ([4]; risperidone 6 mg, ITT): −1.06 (1.20)
- Change from Baseline in PANSS Positive Subscale Score, Mean (S.D.) ([5]; Endpoint LOCF): −5.3 (4.8)
- Change from Baseline in PANSS Positive Subscale Score, Median ([5]; Endpoint LOCF): −5
- Change from Baseline in PANSS Positive Subscale Score, Mean (S.D.) ([5]; Week 1, LOCF): −2.7 (3.4)
- Change from Baseline in PANSS Positive Subscale Score, Median ([5]; Week 1, LOCF): −2
- Change from Baseline in PANSS Positive Subscale Score, Mean (S.D.) ([5]; Week 2, LOCF): −4.3 (4.2)
- Change from Baseline in PANSS Positive Subscale Score, Median ([5]; Week 2, LOCF): −4
- Change from Baseline in PANSS Positive Subscale Score, Mean (S.D.) ([5]; Week 3, LOCF): −5.0 (4.6)
- Change from Baseline in PANSS Positive Subscale Score, Median ([5]; Week 3, LOCF): −5
- Change from Baseline in PANSS Positive Subscale Score, Mean (S.D.) ([5]; Week 4, LOCF): −4.9 (4.6)
- Change from Baseline in PANSS Positive Subscale Score, Median ([5]; Week 4, LOCF): −4
